Entries after “also recorded” stand apart in the source; their conditions may differ.
Columns and labels:
[1] = tested on: RT112 human bladder cancer and H460 human non-small lung cancer cell lines; assay: Cell killing by cyclic amphiphilic peptides (viability and clonogenic survival); type: cell-based
Excerpt: Attempts to limit proteolysis and improve cell uptake, by incorporating the hexameric peptide sequence into cyclic peptide cassettes were undertaken, initially without success (Table 3,X-XIII). Linear constructs attaching PRGPRP to a known cell-internalising amphiphilic sequence were also unsuccessful (Table 3,XIV and 3XV). […] Selective toxicity to these cancer cell lines, and not normal fibroblasts, was retained (Table 4).
(§1) All cell lines were from certified sources.

[2] = tested on: MRC5-hTERT immortalised fibroblasts; assay: Time lapse photomicrography, MRC5-hTERT; type: cell-based, human; details: 200 μM; except for some generalised slowing of growth
Protocol: Progressive morphological changes in dying H460 cells exposed to 200 μM THR53 [additional file 1], contrasted with progressive cell division in untreated H460 cells [additional file 2] are shown as videos. Immortalised MRC5-hTERT fibroblasts, were unaffected by exposure to 200 μM THR53 except for some generalised slowing of growth (Figure 5A), [additional file 3] as compared to control, untreated, MRC5-hTERT cells [additional file 4]. RT112 cells were more sensitive to THR53 than H460 cells and died within 30 - 40 hours as compared to 96 hours for H460 and the majority of other human cancer cell lines investigated.
Figure 5 Time Lapse Photomicrography of MRC5-hTERT, RT112 human bladder cancer and […] human non-small cell lung cancer following exposure toTHR53. Cells were incubated in Ham's F12 + 10% FCS (control medium) or medium + 200 μM THR53. Morphological changes of vacuolation + cellar swelling are seen in RT112 at 33 hours after exposure to THR53 and in H460 at 90 hours after exposure to THR53. There was no evidence of cell blebbing or fragmentation. (see also videos)

[3] = tested on: MRC5-hTERT immortalised fibroblasts; assay: Necrosis assay by Trypan Blue exclusion, MRC5-hTERT; type: cell-based
Protocol: (§2) Necrosis Assay Cells were plated in triplicate in 96 well plates at concentrations of 500 cells per well (HT1299, MCF-7) or 1000 cells per well (H460, MRC5-hTERT) in the presence or absence of the relevant compound and assessed by Trypan Blue exclusion At 2,3,4 and 7 days after plating. To assay, cells were trypsinised off, stained with trypan blue in isotonic medium and live and dead cells separately counted visually by haemocytomter. Each data point is the mean of results from triplicate wells (Solid lines - Live cells, Broken lines - Dead Cells; Blue - Control, Red - THR53 200 μM).

[4] = tested on: H1299 human non-small cell lung cancer cells; assay: Necrosis assay by Trypan Blue exclusion, H1299; type: cell-based
Protocol: as §2

[5] = Preliminary pharmacokinetic experiments; type: in vivo; details: maximum tolerated dose, species not given
NCI-H460 cells = assay: Cellular ATP levels (CellTiter-Glo assay); type: cell-based, human; details: H460, 100 μM THR53, between 48 and 96 hours, CellTiter-Glo luminescence
Protocol: Cellular ATP levels (CellTiter-Glo assay) Cells were grown, seeded and compound-treated as for the alamar Blue assay. A volume of the CellTiter-Glo reagent equal to the volume of cell culture media was added to the cells. Plates were mixed for 2 min on an orbital shaker to induce cell lysis before the plate was incubated at room temperature for 10 min to stabilize the signal. The luminescent signal was measured and the media only background was subtracted.

[6] = tested on: Cdk1 and Cdk4 expression in H460 human non-small cell lung cancer cells; assay: Western blotting of Cdk1 and Cdk4 expression, H460; type: cell-based; details: H460, 200 μM, 24 hours, Western blot
Excerpt: This co-expression is unaffected by cytocidal doses of cisdiamminedichloroplatinum but can accompany spontaneous cancer cell death. Whether or not Cdk1/Cdk4 co-expression remained constant in cancer cells dying as a result of exposure to PRGPRP was thus examined by Western blotting.
as §1

MCF7 breast cancer cells = assay: Killing of cycling versus serum-deprived MCF-7 cells; type: cell-based, human
Excerpt: (§3) Cell death, however, was not dependent on cell division in MCF-7, RT112 or H460. […] had no effect on cell cycle phase distribution in H460 cells (Figure 6B) and […] hexapeptide cancer cell killing was unrelated to endogenous levels of Cdk4 or Cyclin D1. […] A. Macroscopic appearances of cycling […]-treated MCF-7 human breast cancer cells in medium + 10% FCS (left hand panels) compared to the same cells held outside the cell cycle in medium + 0.1%FCS (right hand panel) B. […] C. Sequential Western blots of Cdk1 and Cdk4 expression in RT112 human bladder cancer cells at 0 - 10 days after exposure to 5 mM linear, end-capped, […].

H460 cells = assay: Cell cycle phase distribution (DNA histograms); type: cell-based, human
Excerpt: as §3

[7] = tested on: MCF-7 human breast cancer cells; assay: Necrosis assay by Trypan Blue exclusion, MCF-7; type: cell-based
Protocol: as §2

G361 Melanoma = assay: Response of cancer cell line to 200 μM THR53 (morphology, clonogenic assay); type: cell-based, human; details: G361, 200 μM; morphological changes at 5 days, clonogenic assays at 15 days
Protocol: (§4) The appearances of the disintegrating colonies in Figure 4B were not dissimilar to those of "starbursts" earlier reported in human in vitro cancer cell colonies undergoing spontaneous cell death. Table 5 lists 11 cell lines with complete response to 200 μM THR53. This relatively homogeneous therapeutic response to the same critical dose of THR53 markedly contrasts with the wide range of variability of in-vitro dose response of different cancer cell lines typically seen with conventional chemotherapeutic agents In addition to showing lack of toxicity towards normal human diploid fibroblasts, THR53 and related cyclic amphiphilic PRGPRP-containing peptides were not cytotoxic to normal diploid human keratinocytes growing as primary cultures (Figure 2B) or to MRC5-hTERT immortalised fibroblasts (Figures 4A and 5A).
as §1

MGHU-1 Carcinoma Bladder = assay: as above; type: cell-based, human; details: MGHU-1, 200 μM; morphological changes at 5 days, clonogenic assays at 15 days
Protocol: as §4, §1

Substance: Cyc-[FPPRGPRPVKLALKLALK] (head to tail) [THR53, cyclic amphiphilic analogue, Cyc-[…]]
- improvement in selective cancer cell cytotoxicity ([1]; cyclic amphiphilic cassettes compared with the earlier PRGPRP peptides): fifty- to a hundred-fold improvement
- time at which cell killing reached a maximum ([1]; for the majority of cell lines): ≤ 4 days
- effect on MRC5-hTERT fibroblasts, time lapse [2]: unaffected
- cytotoxicity to MRC5-hTERT immortalised fibroblasts ([3]; 200 μM (Figures 4A and 5A)): not cytotoxic
- necrosis / viability by trypan blue exclusion ([3]; MRC5-hTERT, 200 μM, 2, 3, 4 and 7 days after plating, triplicate wells): unaffected; also recorded: not in MRC5-h-TERT immortalised fibroblasts
- day at which necrotic cells are initially detectable ([4]; H1299, 200 μM): 3 days
- necrosis detected by trypan blue uptake ([4]; H1299, 200 μM, 2, 3, 4 and 7 days after plating, triplicate wells): induces necrosis
- plasma levels [5]: low plasma levels which were not persistent
- ATP levels (NCI-H460 cells): progressive diminution
- Cdk4 expression [6]: complete disappearance
- effect on serum-deprived MCF7 cells (MCF7 breast cancer cells; medium + 0.1%FCS, cells held outside the cell cycle): no effect
- effect on cycling MCF-7 cells (MCF7 breast cancer cells; medium +10% FCS): killed
- effect on cell cycle phase distribution (H460 cells): no effect
- day at which necrotic cells are initially detectable ([7]; MCF-7, 200 μM): 3 days
- necrosis detected by trypan blue uptake ([7]; MCF-7, 200 μM, 2, 3, 4 and 7 days after plating, triplicate wells): induces necrosis
- response to THR53 (G361 Melanoma): total cell death
- response to THR53 (MGHU-1 Carcinoma Bladder): total cell death

Reference: publication PMC3126777, “Selective anticancer activity of a hexapeptide with sequence homology to a non-kinase domain of Cyclin Dependent Kinase 4” (Molecular Cancer, 2011)
